The results in this text go back to patent US20180363057A1, “METHOD FOR EVALUATING INDIVIDUAL RADIOSENSITIVITY AND THE RISK OF ADVERSE EFFECTS” (COMMISSARIAT A L'ENERGIE ATOMIQUE ET AUX ENERGIES …, priority 2015, published 2018).

What all share (type): cell-based, human
The test system of assay [1] is T4EM lymphocytes. The assay can be described thus: 1,10-phenanthroline induced apoptosis of T4EM lymphocytes (AnnexinV). To be noted: for Effect on 1,10-phenanthroline induced apoptosis of T4EM lymphocytes: 80 μg/ml 1,10-phenanthroline, 2 hours, 4 μg/ml rh-sTRAIL or rh-sDR5. Here is the method: Cell suspensions at approximately 5×10^5 cells/ml (or at cell densities specified in the results section) in RPM11640/15% FCS, were irradiated at a dose rate of approximately 0.5 Gy/min with a ^137Cs-source (IBL637; Cis-Bio international/Scherring, Saclay, France), where incubated in the presence of indicated concentrations of recombinant human soluble TRAIL (rh-sTRAlL), recombinant human soluble DR5 (rh-sDR5), anti-TRAIL cytotoxicity-blocking antibody (CD253; clone RIK-2), or of 1,10-phenanthroline (stock solution of 200 mM in DMSO). All experiments described were performed with the same batch of heat inactivated FCS, previously tested for compatibility with our experimental procedures. Incubations of 18 hours or less as specified in results section were at 37° C. and 5% CO2.
(§1) Treated cells were collected and washed with AnnexinV buffer (140mM NaCl, 5mM CaCl2, 10 mM HEPES; ph7.4), and stained with 2.5 μl AnnexinV-FITC in combination with fluorochrome-conjugated CD markers in 100 ul for 30 min. […] For CD253 (mTRAIL) quantification, a compact panel designed to limit the need for compensation including AnnexinV, CD253, CD3, CD4, and CD62L was used.
Cells were washed in AnnexinV-buffer and just prior flow cytometry, 50 μL of AnnexinV-buffer containing 0.2 μg/mL Hoechst 33258 (Molecular Probes, Eugene, Oreg.), was added for dead cell exclusion. Samples were analyzed using a three-laser CyAn LX system, (DakoCytomation, Fort Collins, Colo.) or a 5-laser SORP LSRII (Becton Dickinson). […] All fluorescence signals were log-amplified, and stored in listmode. CompBeads (Becton Dickinson) were used to assist in determination of spill-over in every individual experiment (CD3-FITC was used instead of AnnexinV-FITC) and Fluorescence Minus One (FMO) controls were used where needed, in particular for mTRAIL quantifications (SortWare; Becton Dickinson or Flowjo version 9.6.4; Treestar, Ashland, Oreg.). […]
Data was analyzed using Flowio. […] Subsequently, dead cells were excluded on the basis of HO33258 fluorescence. T Lymphocytes were identified on the basis of positive PETxR (CD3) fluorescence. […]

For assay [2], the system named is mTRAIL. The assay can be described thus: Cell-surface mTRAIL (CD253) level by flow cytometry on T4EM lymphocytes. To be noted: 80 μg/ml.
Description: TRAIL can be soluble (sTRAIL) or membrane-bound (mTRAIL)(Schneider et al., 1998, J. Exp. Med. 187:1205-1213; Wajant et al., 2001, Oncogene. 20:4101-4106). Under the experimental conditions used for radiation-induced apoptosis of T4EM lymphocytes, the levels of sTRAIL in media were below sandwich ELISA detection level (<20 pg/ml; data not shown). The inventors thus focused their study on mTRAIL. Using a monoclonal antibody panel comprising CD253, they measured the level of cell-surface mTRAIL expression by flow cytometry. A four-fold higher expression of mTRAIL was found on T4EM lymphocytes of “sensitive” compared to “resistant” samples (FIG. 3 A). […]
as §1
Cells were washed in AnnexinV-buffer and just prior flow cytometry, 50 μL of AnnexinV-buffer containing 0.2 μg/mL Hoechst 33258 (Molecular Probes, Eugene, Oreg.), was added for dead cell exclusion. Samples were analyzed using a three-laser CyAn LX system, (DakoCytomation, Fort Collins, Colo.) or a 5-laser SORP LSRII (Becton Dickinson). […]
Background: Flow cytometry measures light scatter and fluorescence of single cells or particles in a stream.

Assay [3] relates to TRAIL-receptor DR5. The assay is described as follows: Expression of proapoptotic TRAIL-receptor DR5 in T4EM lymphocytes. Conditions: after 1,10-phenanthroline treatment; data not shown. From the text: All fluorochrome-coupled monoclonal antibodies were used at saturating conditions, as determined by titrations. Anti-human CD antibodies came from Becton Dickinson ImmunoCytometry Systems (CD62L-PE, CD62L-PECy5.1, CD14-PECy5.1, CD-235a-PECy5.1, CD27-PECy5.1, CD4-PECy7, CD19-PECy7, CD45RA-APC, CD8-APCH7), from Beckman Coulter (CD3-PETxR) from Biolegend (CD253/TRAIL-PE, CD62L- BV421, CD3-BV605), or from R&D Systems (CD262/DR5-APC). Recombinant human soluble TRAIL (rh-sTRAIL) and recombinant human soluble DR5 ([…] was from R&D Systems, AnnexinV-FITC from Becton Dickinson, and 1,10-phenanthroline from Sigma-Aldrich.

For assay [4], the system named is T4EM lymphocytes. The assay can be described thus: Radiation-induced apoptosis of T4EM lymphocytes (AnnexinV labeling, flow cytometry). To be noted: 0.4 μg/ml rh-sTRAIL, 18 hours after irradiation at 0, 0.5, 1, 2 Gy.
Description: The sensitivity of subpopulations of human T-lymphocytes to ionizing radiation-induced apoptosis was quantified eighteen hours after irradiation (0-2 Gy) of PBMC samples of healthy blood donors using the previously defined radio sensitivity assay based on immunophenotyping and AnnexinV-labeling. […] Exponential regression coefficients of dose-survival curves were used to classify human PBMC samples according to the radio sensitivity of their T4EM lymphocyte subpopulation, and “sensitive” and “resistant” samples were defined at the two ends of the T4EM radio sensitivity phenotype distribution. […]
as §1
Cells were washed in AnnexinV-buffer and just prior flow cytometry, 50 μL of AnnexinV-buffer containing 0.2 μg/mL Hoechst 33258 (Molecular Probes, Eugene, Oreg.), was added for dead cell exclusion. Samples were analyzed using a three-laser CyAn LX system, (DakoCytomation, Fort Collins, Colo.) or a 5-laser SORP LSRII (Becton Dickinson). […] All fluorescence signals were log-amplified, and stored in listmode. […]

For “rh-sDR5: recombinant human soluble DR5 receptor”, the “Effect on 1,10-phenanthroline induced apoptosis of T4EM lymphocytes” value in assay [1] is on record as “inhibited”.
With `c1cnc2c(c1)ccc1cccnc12` [1,10-phenanthroline], the “Induction of apoptosis in T4EM lymphocytes” value in assay [1] (80 μg/ml, two hours, no irradiation) is given as “rapid induction of apoptosis”. Further, in assay [2] (2 hours), the “mTRAIL level in treated "resistant" samples versus untreated "sensitive" samples” value is “always remained lower”. In addition, the “mTRAIL expression in T4EM lymphocytes” value in assay [2] (two hours after addition, "resistant" and "sensitive" samples) is given as “increase of mTRAIL expression”. Moreover, the “Expression of proapoptotic TRAIL-receptor DR5” value in assay [3] was “increased expression”.

B1: rh-sTRAIL: recombinant human soluble TRAIL, from R&D Systems (protein, UniProt P50591 39-281, looked up)
extracellular domain: TNELKQMQDKYSKSGIACFLKEDDSYWDPNDEESMNSPCWQVKWQLRQLVRKMILRTSEETISTVQEKQQNISPLVRERGPQRVAAHITGTRGRSNTLSSPNSKNEKALGRKINSWESSRSGHSFLSNLHLRNGELVIHEKGFYYIYSQTYFRFQEEIKENTKNDKQMVQYIYKYTSYPDPILLMKSARNSCWSKDAEYGLYSIYQGGIFELKENDRIFVSVTNEHLIDMDHEASFFGAFLVG
modifications: extracellular domain
notes: recombinant human soluble TRAIL, from R&D Systems
As for B1, in assay [4], the “Effect on autocrine pro-apoptotic mode of action of mTRAIL in irradiated T4EM lymphocytes” value was “abolished”. Also, the “Effect on 1,10-phenanthroline induced apoptosis of T4EM lymphocytes” value in assay [1] is “inhibited”.
